According to ChEMBL document CHEMBL5236570, “Substitution of a triazole for the central olefin in biologically active stilbenes” (2022):

Legend:
[1] = system: Panel NCI-60 (60 carcinoma cell lines); test: Growth inhibition of human Panel NCI-60 cells; format: functional
SF-295 = test: Growth inhibition of human SF-295 cells; format: functional

## COc1cc(-n2cc(-c3cc(O)c(C/C=C(\C)CCC=C(C)C)c(O)c3)nn2)cc2c1O[C@]1(C)CC[C@@H](O)C(C)(C)[C@H]1C2
[1]
  GI50: 710 nM
SF-295
  GI50: 35 nM

## COc1cc(CCc2cc(O)c(C/C=C(\C)CC/C=C(\C)CO)c(O)c2)cc2c1O[C@]1(C)CC[C@@H](O)C(C)(C)[C@H]1C2
[1]
  GI50: 4900 nM
SF-295
  GI50: 2500 nM

## COc1cc(/C=C/c2cc(O)c(C/C=C(\C)CCC=C(C)C)c(O)c2)cc2c1O[C@]1(C)CC[C@@H](O)C(C)(C)[C@H]1C2 [3-DEOXYSCHWEINFURTHIN B]
[1]
  GI50: 620 nM
SF-295
  GI50: 62 nM

## CC(C)=CCC/C(C)=C/Cc1c(O)cc(/C=C/c2cc(O)c3c(c2)C[C@@H]2C(C)(C)[C@H](O)[C@H](O)C[C@@]2(C)O3)cc1O [SCHWEINFURTHIN A]
[1]
  GI50: 360 nM
SF-295
  GI50: 11 nM
